Test results published in US6335339B1, “Triazine antiviral compounds” (Scriptgen Pharmaceuticals, Inc., priority 1998, dated 2002).
Read-outs that look alike come from different tables or passages of the source.

Experiments:
[1] = test system: HBV; assay: antiviral assay in 2.2.15 cells producing HBV (virion DNA dot blot); format: cell-based, Hepatitis B virus
Procedure, shortened: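 2.2.15 cells (integrated HBV genome) were treated daily with compound at 4 concentrations for 9 days; medium harvested 24 h later and virion DNA quantified by dot-blot hybridization. EC50/EC90 are µM concentrations reducing extracellular virus by 50%/90%; cytotoxicity by neutral red uptake, CC50 as 50% cell death.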

[2] = test system: 2.2.15 cells; assay: neutral red dye uptake cytotoxicity; format: cell-based; details: 9 days treatment, read-out: 50% Cell Death CC50
Procedure, shortened: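 Confluent 2.2.15 cultures, same conditions as antiviral assay, treated daily for 9 days with 4 concentrations (3.3-fold dilutions), triplicate wells. 24 hours after the final dose, cells stained 30 minutes with 0.01% neutral red, dye extracted and A510 read; values as % of untreated cultures, CC50 as 50% cell death.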

[3] = extra-cellular virus reduced by 50%, 2.2.15 cells, 9 days treatment, read-out: Antiviral EC50

Which EC50 [1, 3] does the source give for FC(F)(F)c1cccc(Nc2nc(Nc3cccc(Br)c3)nc(N3CCOCC3)n2)c1 [Compound 38] here?
Its EC50 is 0.592 µM.

What about the CC50 [2] of the same compound?
The CC50 was 125 µM.

How did the EC50 [1, 3] turn out when O=[N+]([O-])c1ccc(Nc2nc(N/N=C/c3cccc(Cl)c3)nc(N3CCCCC3)n2)cc1 [Compound 41] was run?
The EC50 was 36 µM.

What about the CC50 [2] of the same compound?
Its CC50 is > 300 µM.

CNc1nc(NN=Cc2ccccc2[N+](=O)[O-])nc(Nc2ccccc2)n1 [Compound 65] was tested. Which EC50 [1, 3] did it give?
Its EC50 is > 100 µM.

And the CC50 [2]?
Its CC50 is 17 µM.

Which results are given for Cc1ccc(Nc2nc(NN=Cc3cccc(Br)c3)nc(Nc3ccccc3)n2)c(C)c1 [Compound 49]?
EC50 [1, 3]: 1.2 µM; CC50 [2]: 140 µM

With O=[N+]([O-])c1cc(C=NNc2nc(Nc3ccccc3)nc(N3CCOCC3)n2)ccc1Cl [Compound 52] as the compound, how does the EC50 [1, 3] read?
The EC50 was 4.5 µM.

And the CC50 [2]?
The CC50 was 11 µM.

For CC(C)(C)Nc1nc(NCc2ccccc2)nc(NN=Cc2ccc3c(c2)OCO3)n1 [Compound 67], which EC50 [1, 3] is on record?
The EC50 was > 100 µM.

And the CC50 [2]?
The CC50 was > 100 µM.

With CCN(CC)c1nc(NN=Cc2cc([N+](=O)[O-])ccc2OC)nc(Nc2cc(C)ccc2C)n1 [Compound 85] as the compound, how does the EC50 [1, 3] read?
Its EC50 is > 100 µM.

What about the CC50 [2] of the same compound?
The CC50 was 209 µM.

For CCN(CC)c1nc(NN=Cc2ccc(F)cc2)nc(Nc2ccc([N+](=O)[O-])cc2)n1 [Compound 68], which EC50 [1, 3] is on record?
The EC50 was > 100 µM.

And the CC50 [2]?
Its CC50 is > 300 µM.

With Cc1[nH]c2ccccc2c1C=NNc1nc(Nc2ccccc2)nc(N2CCOCC2)n1 [Compound 4] as the compound, how does the EC50 [1, 3] read?
The EC50 was 3.4 µM.

And the CC50 [2]?
Its CC50 is 3.7 µM.

With COc1ccc(C=NNc2nc(Nc3ccccc3)nc(Nc3ccc(C)cc3C)n2)c(OC)c1 [Compound 61] as the compound, how does the EC50 [1, 3] read?
Its EC50 is 3.7 µM.

What about the CC50 [2] of the same compound?
Its CC50 is 1.3 µM.

With Cc1ccc(Nc2nc(NN=Cc3ccc(Cl)cc3)nc(Nc3ccccc3)n2)c(C)c1 [Compound 42] as the compound, how does the EC50 [1, 3] read?
Its EC50 is 6.1 µM.

And the CC50 [2]?
Its CC50 is 237 µM.

Cc1[nH]c2ccccc2c1C=NNc1nc(NCc2ccccc2)nc(Nc2ccccc2)n1 [Compound 50] was tested. Which EC50 [1, 3] did it give?
Its EC50 is 29 µM.

What about the CC50 [2] of the same compound?
The CC50 was 30 µM.

For Oc1ccc(Nc2nc(Nc3cccc(C(F)(F)F)c3)nc(N3CCOCC3)n2)cc1 [Compound 53], which EC50 [1, 3] is on record?
The EC50 was 1.2 µM.

And the CC50 [2]?
Its CC50 is 72 µM.

With O=[N+]([O-])c1ccc(C=NNc2nc(Nc3ccccc3)nc(NC3CCCCC3)n2)cc1 [Compound 46] as the compound, how does the EC50 [1, 3] read?
Its EC50 is > 100 µM.

And the CC50 [2]?
Its CC50 is > 100 µM.

How did the EC50 [1, 3] turn out when COc1ccc(C=NNc2nc(Nc3ccc([N+](=O)[O-])cc3)nc(N3CCCCC3)n2)cc1 [Compound 44] was run?
The EC50 was 4.8 µM.

And the CC50 [2]?
Its CC50 is 285 µM.

With CC(C)c1ccc(C=NNc2nc(Nc3ccc([N+](=O)[O-])cc3)nc(N3CCCCCC3)n2)cc1 [Compound 56] as the compound, how does the EC50 [1, 3] read?
Its EC50 is > 100 µM.

And the CC50 [2]?
Its CC50 is 63 µM.

With CC(C)(C)Nc1nc(NCc2ccccc2)nc(N/N=C/c2ccccc2F)n1 [Compound 93, 2-fluorobenzaldehyde N-[4-(benzylamino)-6-(tert-butylamino)-1,3,5-triazin-2-yl]hydrazone] as the compound, how does the EC50 ([1]; Hepatitis B virus, 216 h, read-out: Antiviral EC50 (μM)) read?
The EC50 was 0.503 µM.

And the EC50 ([1]; Hepatitis B virus, 216 h, extra-cellular virus reduced by 50%, 2.2.15 cells, 9 days treatment, read-out: Antiviral EC50)?
Its EC50 is 0.006 µM.

Which results are given for CCCCN(CCCC)c1nc(NN=C(C)c2ccccc2)nc(Nc2ccc([N+](=O)[O-])cc2)n1 [Compound 74]?
EC50 [1, 3]: > 100 µM; CC50 [2]: > 100 µM

How did the EC50 [1, 3] turn out when Cc1ccc(Nc2nc(NN=Cc3ccc(Cl)c(Cl)c3)nc(Nc3ccccc3)n2)c(C)c1 [Compound 40] was run?
Its EC50 is 30 µM.

And the CC50 [2]?
The CC50 was 136 µM.

How did the EC50 [1, 3] turn out when CCN(CC)c1nc(N/N=C/c2ccc([N+](=O)[O-])cc2)nc(Nc2cc(C)ccc2C)n1 [Compound 63] was run?
The EC50 was > 100 µM.

What about the CC50 [2] of the same compound?
Its CC50 is > 100 µM.

COc1ccccc1C=NNc1nc(Nc2ccc([N+](=O)[O-])cc2)nc(Nc2ccc(C)c(C)c2)n1 [Compound 94] was tested. Which EC50 [1, 3] did it give?
The EC50 was > 100 µM.

And the CC50 [2]?
Its CC50 is > 300 µM.

With Brc1cc2c(cc1C=NNc1nc(NCc3ccccc3)nc(Nc3ccccc3)n1)OCO2 [Compound 43] as the compound, how does the EC50 [1, 3] read?
Its EC50 is 0.841 µM.

And the CC50 [2]?
Its CC50 is 87 µM.

Which EC50 [1, 3] does the source give for Cc1ccc(Nc2nc(NN=Cc3ccc4c(c3)OCO4)nc(Nc3ccccc3)n2)c(C)c1 [Compound 51] here?
Its EC50 is 15 µM.

And the CC50 [2]?
Its CC50 is 130 µM.

Which EC50 [1, 3] does the source give for C(=NNc1nc(Nc2ccccc2)nc(N2CCCCC2)n1)c1ccccc1 [Compound 3] here?
The EC50 was 4.8 µM.

And the CC50 [2]?
The CC50 was > 100 µM.

With C(=Cc1ccccc1)C=NNc1nc(NCc2ccccc2)nc(Nc2ccccc2)n1 [Compound 91] as the compound, how does the EC50 [1, 3] read?
Its EC50 is > 100 µM.

And the CC50 [2]?
The CC50 was > 300 µM.

For CCCCN(CCCC)c1nc(NN=Cc2c[nH]c3ccccc23)nc(Nc2ccc([N+](=O)[O-])cc2)n1 [Compound 39], which EC50 [1, 3] is on record?
The EC50 was 1 µM.

And the CC50 [2]?
Its CC50 is 5.3 µM.

Which EC50 [1, 3] does the source give for Cc1[nH]c2ccccc2c1C=NNc1nc(Nc2ccccc2)nc(N2CCCCC2)n1 [Compound 88] here?
Its EC50 is 4.8 µM.

And the CC50 [2]?
The CC50 was > 100 µM.

What does the source list for CC(C)c1ccc(C=NNc2nc(Nc3ccc([N+](=O)[O-])cc3)nc(N3CCCCC3)n2)cc1 [Compound 62]?
EC50 [1, 3]: > 100 µM; CC50 [2]: > 100 µM
